Measurements reported in US6994981B2, “Modulators of paraptosis and related methods” (The Buck Institute, priority 2002, dated 2006).
Counter-ions that a name gives are not always drawn. Blank lines part the entries; values can stand above or below the molecule they belong to. Starred links: 1 amine or outer side, 2 acyl side, 3 side chain; linkers in the order of their positions; H or OH if unused. Positions of bridges follow the written chain, without caps; N, C: chain ends. Non-standard residues stand in square brackets, D forms with d. Residues, ends and D or L forms follow the SMILES beside them. Chains are numbered I, II in the order given. No end group written: not given here. Actinocin(9to1) = Cc1c2oc3c(C)ccc(C(=O)[*:1])c3nc-2c(C(=O)[*:2])c(N)c1=O; NMeV = CN[C@H](C(=O)O)C(C)C; Sar = CNCC(=O)O

Columns and labels:
[1] = tested on: striatal, cortical, and hippocampal neurons; experiment: SP-induced cell death in primary striatal, cortical and hippocampal neurons, trypan blue viability and staining; assay type: cell-based, rat; conditions: for effect on neuronal cell death in response to SP: added 30 min before SP: 10 μM PD 98059, 50 nM Calphostin C, 10 μM Rp-8-Br-cAMPS; for effect on SP-induced neuronal cell death: 5 nM L-732,138, 1 nM L-733,060; for effect on SP-induced neuronal cell death / effect on SP-induced cell death: added at the same time as SP; for effect on SP-induced cell death: 1 μg/ml
Method: Rat neuronal primary cell cultures were also used to assay for inducers and inhibitors of paraptosis. Briefly, primary striatal, cortical and hippocampal cultures were prepared from 17-day-old Sprague-Dawley rat embryos (B&K). The tissue was dissected, minced and trypsinized for five minutes using 0.25% trypsin (Cell Grow). After the addition of 10% horse serum (Life Technologies) to inhibit the trypsin, the cell suspension was triturated 15–20 times with a 10 ml syringe and centrifuged for five minutes at 800×g. The pellet was resuspended in MEM-PAK (UCSF Cell Culture facility), supplemented with 2.02 gm glucose, 2 mM GLUTAMAX™ (Life Technologies) and penicillin/streptomycin (100 U/ml). The suspension was filtered through a […] cell strainer and the final culture medium contained 5% horse serum. Subsequently, 3-4×10^5 cells per Cm^2 were seeded onto either poly-D-lysine precoated 8-well chamber slides (Becton-Dickson Labware) or 96 well plates precoated with […] of poly-D-lysine (Sigma) in water. After 30 minutes of incubation time, unattached cells were removed together with the medium and replaced with glucose enriched MEM-PAK plus 5% horse serum. The cultures were then incubated at 37° C. in 95% air 5% carbon dioxide with 95% humidity. Cultures were used for experiments between day 1 and day 7 when glial contamination was at a minimum.
Primary neuronal cells were prepared as described in Example I. SP (SIGMA) at a concentration of 0.1 nM–100 μM was added 24–48 hrs after seeding, in the presence of 2.5% horse serum. When the cultures were maintained for more than 5 days, 10 μM cytosine arabinoside was added for 24 hours, beginning 3 days after plating the cells. Viability was quantified by trypan blue staining of the total cell population.
The following compounds were added at the same time as SP in the indicated experiments: 5 nM L-732, 138; 1 nM L-733,060; 1 μg/ml Actinomycin D or 1 μg/ml Cycloheximide. All of these compounds were obtained from SIGMA. The caspase inhibitors zVAD.fmk and BAF were added at 50 μM and obtained from Enzyme System Products, Livermore, Calif.
Either neuronal primary cultures or human embryonic kidney 293T cells were fixed with 4% paraformaldehyde and stained with 0.5 μg/ml DAPI (Molecular Probes) or Hoechst(SIGMA). […]
The protein kinase inhibitors were added 30 min before SP exposure at the following concentrations: 10 μM Rp-8-Br-cAMPS (adenosin 3′,5′-cyclic monophosphorothioate, 8-bromo-, Rp-isomer, sodium salt) which is a PKA inhibitor; 50 nM Calphostin C, which is a PKC inhibitor; 10 μM PD 98059 which is a MAPKK (MEK) inhibitor. These compounds were obtained from Calbiochem. Viability was quantified by trypan blue staining of the total cell population.

[2] = tested on: 293T cells; experiment: Induction of paraptosis in 293T cells, LDH cell death assay; assay type: cell-based, human; conditions: for induction of paraptosis when expressed: pcDNA3 construct transiently transfected into 293T cells
Method: Human embryonic kidney 293T cell line cells were used to assay for inducers and inhibitors of paraptosis. These cells were cultured in high glucose DMEM (Life Technologies) supplemented with 10% FBS (Sigma) and 1% penicillin/streptomycin (Life Technologies). The cultures were incubated at 37° C. in 95% air 5% carbon dioxide with 95% humidity.
Subsequently, compounds were added to 293T cells and/or rat neuronal primary cell culture cells in order to determine if the compounds could induce paraptosis. Cell death was assayed using the lactate dehydrogenase (LDH) assay, in which the relative amount of enzyme released from dying cells in the medium is measured by following the disappearance of nicotinamide adenine dinucleotide, reduced form (NADH) in the following reaction: pyruvate+NADH <−>NAD^++ lactate. Briefly, 50 μl of culture medium for either 293T cells or 100 μl of culture medium for neuronal primary culture were dispensed in a 96 well plate to which 100 μl of a solution consisting of 5 mg of NADH dissolved in 20 ml of PBS and 0.5 ml of 100 mM NaPyruvate. NADH disappearance was assessed by kinetic photmetric readings at a 340 nm wavelength at 19 minute intervals over a period of 2 hours and 30 minutes.
Constructs of pcDNA3 containing procaspase-7 or procaspase-8 were transiently transfected into 293T cells using Lipofect-Amine (GIBCO-BRL) according to the manufacturer's instructions. Briefly, 1×10^6 293T cells were seeded in 6 cm dishes, and transfected the next day using a ratio of DNA:Lipofect-Amine of 1 μg:5 μl. Transfection efficiency was 60–80% for 293T cells, as determined by X-gal staining after transfection of a β-galactosidase construct.

[3] = tested on: IGFIR-IC transfected 293T cells; experiment: Inhibition of IGFIR-IC induced paraptosis in transfected 293T cells, LDH assay; assay type: cell-based, human; conditions: added at the time of transfection
Method: Paraptosis was induced in 293T cells by expressing the intracellular domain of the insulin-like growth factor I receptor (IGFIR-IC) in these cells using transient transfection as described above.
(§1) Test compounds were added to IGFIR-IC transfected 293T cells at the time of transfection.
The TRAF2 dominant negative mutant contains a deletion of the amino terminal 271 amino acids of the protein. The ratio of IGFIR-IC:AIP1 and IGFIR-IC:TRAF2DN was 1:3. […] Antisense oligonucleotide constructs for JNK1 or JNK2 (50–100 nM) were transfected into 293T cells one day before transfection with the IGFIR-IC construct. For all inhibition assays, cell viability was measured using the LDH assay.

[4] = tested on: paraptosis induced by caspase 7, caspase 8 or caspase 9; experiment: Inhibition of paraptosis induced by caspases; assay type: cell-based
Method: as §1

[5] = tested on: caspases, calpains, proteasome; experiment: Protease activation during SP-induced cell death, substrate hydrolysis in cytosolic extracts of NK1R-transfected 293T cells; assay type: biochemical, human; conditions: added to cytosolic extract of NK1R-transfected 293T cells
Method: Preparation of cell-free extract for kinetic studies: 293T cells seeded at the density of 2 million cells per 10 cm dish were transfected with NK1R cDNA using Lipofectamine 2000 (Gibco) according the instructions provided by the manufacturer. After 24 hr 10 nM SP was added to half of the culture dishes. At 24 hr later the cells were washed with ice cold PBS and collected with a cell scraper. The cells pelleted at 700×g for 4 min were resuspended in cell lysis buffer at pH 7.4 containing 1 mM dithiothreitol at a ratio of 1:1 (v/v). After 30 min on ice the swelled cells were disrupted with 20 strokes using a 27 gauge needle and further spun at 16,000×g for 30 min. The pellet was discarded and the supernatant which represents the cytosolic fraction was aliquoted and stored at −80° C. or used in the kinetic studies. The protein concentration was determined using the Bradford assay (Pierce).
For kinetic studies, the proteolytic activities were followed fluorometrically by monitoring AFC or AMC release from 100 μM of the corresponding substrates (Enzyme Systems Products): Caspase-1 like, Ac-YVAD-AFC; caspase-2, Ac-VDVAD-AFC; caspases-3 like, Ac-DEVD-AFC; caspase-6, Ac-VEID-AFC; caspase-8, Ac-IETD-AFC; caspase-9, Ac-LEHD-AFC. Calpain activity was monitored with 100 μM Suc-LY-AFC (succinyl-Leu-Tyr-7-amino-4-methylcoumarin, Enzyme Systems Products) at 5 μM and 5 mM CaCl2. The chymotrypsin activity of the proteasome was followed with 100 μM Suc-LLVY-AFC (succinyl-Leu-Leu-Val-Tyr-7-amino-4-methylcoumarin, Enzyme Systems Products), and cathepsins were assayed using 20 μM Z-FR-AMC (Benzyloxycarbonyl-Phe-Arg-7-amino-4-methylcoumarin, Bachem). A 10 μl aliquot of extract in the presence or absence of SP was added to 90 μl of substrate at the appropriate concentration and pH. The reaction was continuously monitored during 30 min and 37° C. in a fluorescence microplate reader (Molecular Devices). The instrument was set at excitation and emission wavelengths of 405 and 510 for AFC releasing group, and 370 and 460 nm, for AMC releasing group, respectively. The steady-state hydrolysis rates were obtained from the linear part of the curves.

Molecule: Calphostin C
effect on neuronal cell death in response to SP [1]: no protective effect

Molecule: D form of SP: D isomer of substance P ([dR][dP][dK][dP][dQ][dQ][dF][dF]G[dL][dM]; ends and bridges not checked)
effect of SP isomer on neuronal cell death ([1]; L or D isomer): no effect on cell death

Molecule: FC(F)(F)c1cc(CO[C@H]2CCCN[C@H]2c2ccccc2)cc(C(F)(F)F)c1 [L-733,060]
effect on SP-induced neuronal cell death [1]: inhibited SP-induced cell death

Molecule: Cc1c2oc3c(C)ccc(C(=O)N[C@@H]4C(=O)N[C@H](C(C)C)C(=O)N5CCC[C@H]5C(=O)N(C)CC(=O)N(C)[C@@H](C(C)C)C(=O)O[C@@H]4C)c3nc-2c(C(=O)N[C@@H]2C(=O)N[C@H](C(C)C)C(=O)N3CCC[C@H]3C(=O)N(C)CC(=O)N(C)[C@@H](C(C)C)C(=O)O[C@@H]2C)c(N)c1=O [actinomycin D] (I: T[dV]P[Sar][NMeV] / II: T[dV]P[Sar][NMeV]; ester I:1-I:C, II:1-II:C; linker I:N-II:N via Actinocin(9to1))
effect on SP-induced cell death [1]: prevented

Molecule: neurokinin A: NK1R agonist that does not exhibit mitochondrial toxicity (HKTDSFVGLM; ends and bridges not checked; UniProt P20366 98-107, looked up)
induction of cell death by NK1R agonists ([1]; compared with SP): able to induce cell death as well as SP

Molecule: Tumor Necrosis Factor-α
concentration at which found to induce paraptosis ([2]; 293T cells): 1 to 10 ng/mL

inhibition of paraptosis induced by caspase 8 [4]: able to inhibit paraptosis
inhibition of paraptosis induced by caspase 9 [4]: able to inhibit paraptosis
Molecule: c1cnc2c(c1)ccc1cccnc12 [1–10-phenantroline]
concentration able to inhibit IGFIR-IC induced paraptosis [3]: 0.05 µM

Molecule: C[C@@H]1C[C@@H]([C@H](O)CC2CC(=O)NC(=O)C2)C(=O)[C@@H](C)C1 [cyclohexamide]
effect on SP-induced cell death [1]: prevented

Molecule: CC(=O)N[C@@H](Cc1c[nH]c2ccccc12)C(=O)OCc1cc(C(F)(F)F)cc(C(F)(F)F)c1 [L-732,138]
effect on SP-induced neuronal cell death [1]: inhibited SP-induced cell death

Molecule: Nc1ncnc2c1nc(Br)n2C1OC2COP(O)(=S)OC2C1O (single isomer, unassigned) [Rp-8-Br-cAMPS, adenosin 3′,5′-cyclic monophosphorothioate, 8-bromo-, Rp-isomer, sodium salt]
effect on neuronal cell death in response to SP [1]: no protective effect

Molecule: O=S(=O)(NCCNC/C=C/c1ccc(Br)cc1)c1cccc2cnccc12 [H89]
concentration able to inhibit IGFIR-IC induced paraptosis [3]: 10 to 20 µM

Molecule: granzyme B: serine protease that activates procaspase-3
increase of DEVDase activity [5]: 7 fold

B1: procaspase-7: procaspase-7 expressed in 293T cells from a pcDNA3 construct (protein, UniProt P55210 2-303, looked up)
pro-form: ADDQGCIEEQGVEDSANEDSVDAKPDRSSFVPSLFSKKKKNVTMRSIKTTRDRVPTYQYNMNFEKLGKCIIINNKNFDKVTGMGVRNGTDKDAEALFKCFRSLGFDVIVYNDCSCAKMQDLLKKASEEDHTNAACFACILLSHGEENVIYGKDGVTPIKDLTAHFRGDRCKTLLEKPKLFFIQACRGTELDDGIQADSGPINDTDANPRYKIPVEADFLFAYSTVPGYYSWRSPGRGSWFVQALCSILEEHGKDLEIMQILTRVNDRVARHFESQSDDPHFHEKKQIPCVVSMLTKELYFSQ
modifications: pro-form
notes: procaspase-7 expressed in 293T cells from a pcDNA3 construct
induction of paraptosis when expressed [2]: able to induce paraptosis

B2: procaspase-8: procaspase-8 expressed in 293T cells from a pcDNA3 construct (protein, UniProt Q14790 1-479, looked up)
pro-form: MDFSRNLYDIGEQLDSEDLASLKFLSLDYIPQRKQEPIKDALMLFQRLQEKRMLEESNLSFLKELLFRINRLDLLITYLNTRKEEMERELQTPGRAQISAYRVMLYQISEEVSRSELRSFKFLLQEEISKCKLDDDMNLLDIFIEMEKRVILGEGKLDILKRVCAQINKSLLKIINDYEEFSKERSSSLEGSPDEFSNGEELCGVMTISDSPREQDSESQTLDKVYQMKSKPRGYCLIINNHNFAKAREKVPKLHSIRDRNGTHLDAGALTTTFEELHFEIKPHDDCTVEQIYEILKIYQLMDHSNMDCFICCILSHGDKGIIYGTDGQEAPIYELTSQFTGLKCPSLAGKPKVFFIQACQGDNYQKGIPVETDSEEQPYLEMDLSSPQTRYIPDEADFLLGMATVNNCVSYRNPAEGTWYIQSLCQSLRERCPRGDDILTILTEVNYEVSNKDDKKNMGKQMPQPTFTLRKKLVFPSD
modifications: pro-form
notes: procaspase-8 expressed in 293T cells from a pcDNA3 construct
induction of paraptosis when expressed [2]: able to induce paraptosis
